The source of these data is PubChem BioAssay AID1259407 (Chemical Carcinogenesis Research Information System (CCRIS), 2018).

Calls of active or inactive are those of the source. The rule behind the calls is not given here.

This data set deals with CCRIS mutagenicity, Ames/micronucleus/aberration tests. Description: CCRIS mutagenicity studies.
The mark [1] stands for this setting: Test System: AMES SALMONELLA TYPHIMURIUM, Strain/Indicator: TA98, Metabolic Activation: NONE, Method: STANDARD PLATE.
Setting [2] is: Test System: AMES SALMONELLA TYPHIMURIUM, Strain/Indicator: TA100, Metabolic Activation: NONE, Method: STANDARD PLATE.
Setting [3] is: Test System: AMES SALMONELLA TYPHIMURIUM, Strain/Indicator: TA98, Metabolic Activation: NONE, Method: PREINCUBATION
The mark [4] stands for this setting: Test System: AMES SALMONELLA TYPHIMURIUM, Strain/Indicator: TA100, Metabolic Activation: NONE, Method: PREINCUBATION
[5] abbreviates: Test System: AMES SALMONELLA TYPHIMURIUM, Strain/Indicator: TA1535, Metabolic Activation: NONE, Method: PREINCUBATION
Setting [6] is: Test System: AMES SALMONELLA TYPHIMURIUM, Strain/Indicator: TA1537, Metabolic Activation: NONE, Method: PREINCUBATION

As for `CN(CC(=O)NN)c1ccc2ccccc2c1`, the mutagenic call by setting is: under setting [1], “inactive; negative”; (Test System: AMES SALMONELLA TYPHIMURIUM, Strain/Indicator: TA98, Metabolic Activation: RAT, LIVER, S-9, AROCLOR 1254, Method: STANDARD PLATE) “inactive; negative”; under setting [2], “inactive; negative”; (Test System: AMES SALMONELLA TYPHIMURIUM, Strain/Indicator: TA100, Metabolic Activation: RAT, LIVER, S-9, AROCLOR 1254, Method: STANDARD PLATE) “inactive; negative”; (Test System: AMES SALMONELLA TYPHIMURIUM, Strain/Indicator: TA1537, Metabolic Activation: NONE, Method: STANDARD PLATE) “inactive; negative”; (Test System: AMES SALMONELLA TYPHIMURIUM, Strain/Indicator: TA1537, Metabolic Activation: RAT, LIVER, S-9, AROCLOR 1254, Method: STANDARD PLATE) “inactive; negative”.
Consider `Cc1c2ccccc2c(C)c2c3c(ccc12)C(=O)C(=O)C=C3`, for which the mutagenic call by setting is: (Test System: AMES SALMONELLA TYPHIMURIUM, Strain/Indicator: TA97A, Metabolic Activation: NONE, Method: PREINCUBATION) “inactive; negative”; under setting [3], “inactive; negative”; under setting [4], “inactive; negative”; (Test System: AMES SALMONELLA TYPHIMURIUM, Strain/Indicator: TA102, Metabolic Activation: NONE, Method: PREINCUBATION) “inactive; negative”; (Test System: AMES SALMONELLA TYPHIMURIUM, Strain/Indicator: TA104, Metabolic Activation: NONE, Method: PREINCUBATION) “inactive; negative”.
For the compound `COc1ccc2c(c1)C(=O)c1nccc3cc4c(c-2c13)OCO4`, the mutagenic call by setting is: (Test System: AMES SALMONELLA TYPHIMURIUM, Strain/Indicator: TA98, Metabolic Activation: RAT, LIVER, S-9, PHENOBARBITAL AND BETA-NAPHTHOFLAVONE, Method: PREINCUBATION) “active; positive”; (Test System: AMES SALMONELLA TYPHIMURIUM, Strain/Indicator: TA100, Metabolic Activation: RAT, LIVER, S-9, PHENOBARBITAL AND BETA-NAPHTHOFLAVONE, Method: PREINCUBATION) “active; positive”.
For the compound `[Li+]`, the mutagenic call by setting is: (Test System: AMES SALMONELLA TYPHIMURIUM, Strain/Indicator: TA98, Metabolic Activation: HAMSTER, LIVER, S-9, AROCLOR 1254, Method: PREINCUBATION) “inactive; negative”; under setting [3], “inactive; negative”; (Test System: AMES SALMONELLA TYPHIMURIUM, Strain/Indicator: TA98, Metabolic Activation: RAT, LIVER, S-9, AROCLOR 1254, Method: PREINCUBATION) “inactive; negative”; (Test System: AMES SALMONELLA TYPHIMURIUM, Strain/Indicator: TA100, Metabolic Activation: HAMSTER, LIVER, S-9, AROCLOR 1254, Method: PREINCUBATION) “inactive; negative”; under setting [4], “inactive; negative”; (Test System: AMES SALMONELLA TYPHIMURIUM, Strain/Indicator: TA100, Metabolic Activation: RAT, LIVER, S-9, AROCLOR 1254, Method: PREINCUBATION) “inactive; negative”. The mutagenic call is “inactive; negative” (Test System: AMES SALMONELLA TYPHIMURIUM, Strain/Indicator: TA1535, Metabolic Activation: HAMSTER, LIVER, S-9, AROCLOR 1254, Method: PREINCUBATION); “inactive; negative” under setting [5]; “inactive; negative” (Test System: AMES SALMONELLA TYPHIMURIUM, Strain/Indicator: TA1535, Metabolic Activation: RAT, LIVER, S-9, AROCLOR 1254, Method: PREINCUBATION); “inactive; negative” (Test System: AMES SALMONELLA TYPHIMURIUM, Strain/Indicator: TA1537, Metabolic Activation: HAMSTER, LIVER, S-9, AROCLOR 1254, Method: PREINCUBATION); “inactive; negative” under setting [6]; “inactive; negative” (Test System: AMES SALMONELLA TYPHIMURIUM, Strain/Indicator: TA1537, Metabolic Activation: RAT, LIVER, S-9, AROCLOR 1254, Method: PREINCUBATION). The mutagenic call (Test System: E. COLI, Strain/Indicator: WP2 UVRA, Metabolic Activation: NONE, Method: SPOT TEST) was “inactive; negative”.
With `C[O+](C)C.[Cl][Sb-]([Cl])([Cl])([Cl])([Cl])[Cl]`, the mutagenic call reads like this: under setting [3], “inactive; negative”; (Test System: AMES SALMONELLA TYPHIMURIUM, Strain/Indicator: TA98, Metabolic Activation: RAT, LIVER, S-9, AROCLOR 1254 (10%), Method: PREINCUBATION) “inactive; negative”; under setting [4], “inactive; negative”; (Test System: AMES SALMONELLA TYPHIMURIUM, Strain/Indicator: TA1535, Metabolic Activation: HAMSTER, LIVER, S-9, AROCLOR 1254 (10%), Method: PREINCUBATION) “inactive; negative”; under setting [5], “inactive; negative”; (Test System: AMES SALMONELLA TYPHIMURIUM, Strain/Indicator: TA1535, Metabolic Activation: RAT, LIVER, S-9, AROCLOR 1254 (10%), Method: PREINCUBATION) “inactive; negative”. Further, the mutagenic call is “inactive; negative” (Test System: AMES SALMONELLA TYPHIMURIUM, Strain/Indicator: TA1537, Metabolic Activation: HAMSTER, LIVER, S-9, AROCLOR 1254 (10%), Method: PREINCUBATION); “inactive; negative” under setting [6]; “inactive; negative” (Test System: AMES SALMONELLA TYPHIMURIUM, Strain/Indicator: TA1537, Metabolic Activation: RAT, LIVER, S-9, AROCLOR 1254 (10%), Method: PREINCUBATION); “active; positive. reevaluation of results: positive” (Test System: MOUSE LYMPHOMA, Strain/Indicator: L5178Y (TK+/TK-), Metabolic Activation: RAT, LIVER, S-9, AROCLOR 1254, Method: SUSPENSION/PLATE); “inactive; negative” (Test System: Mouse lymphoma, Strain/Indicator: L5178Y (tk+/tk-), Metabolic Activation: None, Method: Suspension/plate).
Regarding `CC(=O)c1cc(NC(=O)Nc2ccc(OCC(O)CNC(C)(C)C)c(C(C)=O)c2)ccc1OCC(O)CNC(C)(C)C` (stereo unspecified), the mutagenic call is, setting by setting: under setting [3], “inactive; negative”; (Test System: AMES SALMONELLA TYPHIMURIUM, Strain/Indicator: TA98, Metabolic Activation: RAT, LIVER, S-9, PHENOBARBITAL AND 5,6-BENZOFLAVONE (10 OR 50 µL/PLATE), Method: PREINCUBATION) “inactive; negative”; under setting [4], “inactive; negative”; (Test System: AMES SALMONELLA TYPHIMURIUM, Strain/Indicator: TA100, Metabolic Activation: RAT, LIVER, S-9, PHENOBARBITAL AND 5,6-BENZOFLAVONE (10 OR 50 µL/PLATE), Method: PREINCUBATION) “inactive; negative”; under setting [5], “inactive; negative”; under setting [6], “inactive; negative”. The mutagenic call runs as follows: (Test System: AMES SALMONELLA TYPHIMURIUM, Strain/Indicator: TA1537, Metabolic Activation: RAT, LIVER, S-9, PHENOBARBITAL AND 5,6-BENZOFLAVONE (10 OR 50 µL/PLATE), Method: PREINCUBATION) “inactive; negative”; (Test System: E. COLI, Strain/Indicator: WP2 UVRA, Metabolic Activation: NONE, Method: PREINCUBATION) “inactive; negative”; (Test System: E. COLI, Strain/Indicator: WP2 UVRA, Metabolic Activation: RAT, LIVER, S-9, PHENOBARBITAL AND 5,6-BENZOFLAVONE (10 OR 50 µL/PLATE), Method: PREINCUBATION) “inactive; negative”.
As for `CCN(C(=S)[S-])c1ccccc1.CCN(C(=S)[S-])c1ccccc1.[Zn+2]`, the mutagenic call runs as follows: under setting [1], “inactive; negative”; (Test System: AMES SALMONELLA TYPHIMURIUM, Strain/Indicator: TA98, Metabolic Activation: S-9, Method: STANDARD PLATE) “inactive; negative”; under setting [2], “inactive; negative”; (Test System: AMES SALMONELLA TYPHIMURIUM, Strain/Indicator: TA100, Metabolic Activation: S-9, Method: STANDARD PLATE) “inactive; negative”.
For `O=C1OCC(Br)=C1Br`, under setting [2], the mutagenic call was “active; positive”.
